From ChEMBL document CHEMBL1151802, “Calyciphyllines N-P, alkaloids from Daphniphyllum calycinum” (J Nat Prod, 2009)

How the values were obtained:
Assay type in all cases: functional, cell-based
[1] = tested on: P388; experiment: Cytotoxicity against mouse P388 cells
[2] = tested on: L1210; experiment: Cytotoxicity against mouse L1210 cells
[3] = tested on: KB; experiment: Cytotoxicity against human KB cells

Row | SMILES | IC50 [1] | IC50 [2] | IC50 [3]
1 | COC(=O)[C@@H]1C[C@]23C4=NC[C@@H](C)[C@]45CC[C@@]2(C)[C@H](CCC2=C3[C@@H]1CC2)[C@H]5O [CALYCIPHYLLINE N] | > 55 µg/mL | > 5 µg/mL | > 5 µg/mL
2 | COC(=O)CC[C@@]12[C@@H]3NC4C([C@@H](O)C[C@@]45CCC[C@H]51)[C@]2(C)CC[C@@H]3C(C)C [CALYCIPHYLLINE O] | > 55 µg/mL | > 5 µg/mL | > 5 µg/mL
